Here are results for 2 compounds from paper PMC12633754, “Elastase inhibition by natural flavonoids: mechanistic insights and potential therapeutic applications” (Frontiers in Nutrition, 2025).

pIC50, pKd: −log10 of the molar value.

In assay [1] the target is T1, porcine pancreatic elastase (PPE) (Sus scrofa, UniProt P00772).
T1 construct: purchased Sigma-Aldrich (St. Louis, MO, United States)
Kind of assay: Synchronous fluorescence spectra of PPE. The following applies: Δλ = 60 nm, PPE 2 μM, flavonoid 0-80 μM, 298 K. The procedure:
For the synchronous fluorescence spectroscopy experiments, the configuration of the solution preparation was the same as that used in experiment 2.3. Synchronous fluorescence spectra of PPE-quercetin, PPE-hyperoside, PPE-luteolin, and PPE-luteoloside were recorded at 298 K.

In assay [2] the target is T1, porcine pancreatic elastase (PPE). Briefly: UV-vis absorption spectra of PPE with flavonoid. The following applies: PPE 5 μM, flavonoid 15 μM, 298 K. The procedure:
The UV–vis absorption spectra of porcine pancreatic elastase PPE (2.5 mL) were recorded using a Cary 300 spectrometer (Agilent, San Diego, CA, United States) in a quartz cuvette with a path length of 10 mm. PPE concentration was fixed at 5 μM and the drug concentrations were 0 and 15 μM. Tris–HCl solution (pH 7.6) was used as the blank. The control group was a solution of four flavonoid monomers at a final concentration of 15 μM. The spectra were recorded in the range of 200–500 nm with a slit width of 2 nm at 298 K.

For assay [3] the target is unchanged. Briefly: FT-IR spectra of PPE-monomer complexes. The following applies: PPE 10 μM, flavonoid 100 μM. As for the experimental part:
FTIR spectra were obtained using the potassium bromide (KBr) compression method with a Nicolet IS-50 spectrometer (Thermo Fisher Scientific, Waltham, MA, United States). […] The sheets were then dried at 45 °C and pressed. Blank background for the PBS buffer sheets. The spectral region between 4,000 and 500 cm^−1 was selected to examine changes in the secondary structure resulting from enzyme-drug interactions. All samples were assayed after drying and the experimental conditions were consistent for each group of assays.

Assay [4] shares this target. Kind of assay: Elastase inhibition assay, fluorescent substrate MeOSuc-Ala-Ala-Pro-Val-AMC. Format: biochemical. As for the experimental part: Elastase was selected as the enzyme target and MeOSuc-Ala-Ala-Pro-Val-AMC as the substrate for the enzymatic reaction. According to the principle of enzyme reactions, an in vitro target enzyme drug screening model was established by measuring the relative fluorescence intensity for drug screening and evaluation. The inhibition rate was measured using a FlexStation3 multifunctional plate reader (Molecular Devices, Shanghai, China). Elastase solution (50 μL, 5 × 10^−7 mol/L) was mixed with a fluorescent substrate (50 μL, 2 × 10^−5 mol/L), and Tris–HCl buffer solution was added to obtain a total volume of 200 μL. […] The excitation wavelength was adjusted to 380 nm, and the emission wavelength was recorded in the range 420–540 nm. A 200 μL buffer solution was used as the blank for reference. The relative fluorescence values of pure enzyme activity were recorded. Four monomer solutions of the same concentration were added separately and their relative fluorescence values were measured under the same conditions. The concentration of each monomer was varied in different samples to obtain IC50 values. Inhibition rate (%) was calculated as follows:
Inhibition rate(%)=RFUPPE−RFUDrugs+PPE/RFUPPE×100% (1)
where the relative fluorescence unit (RFU) PPE refers to the relative fluorescence measured when only PPE and the fluorescent substrate are present without any inhibitors, and RFU Drugs+PPE refers to the relative fluorescence measured when both PPE and the test drug inhibitor are present.

The target is the same in assay [5]. Briefly: Fluorescence resonance energy transfer and binding distance. The following applies: [PPE] = [flavonoid] = 10 μM, 298 K. The procedure: The PPE-quercetin, PPE-hyperoside, PPE-luteolin, and PPE-luteoloside binding distances were calculated according to the fluorescence resonance energy transfer theory ([31]–[33]):
J=∑FD(λ)εA(λ)λ^4Δλ/∑FD(λ)Δλ (9)
where k^2 is the dipole moment spatial orientation factor, usually taking the average 2/3; φ is the quantum efficiency of PPE, usually a quantum efficiency of Try residues of 0.15; n is the refractive index of the medium, representing the average of water and organic matter; J is the overlap integral of the absorption spectra and the fluorescence spectra; and ɛA(λ) is the molar extinction coefficient ([34]–[36]).

For assay [6] the target is unchanged. Briefly: CD spectroscopy, secondary structure of PPE. The following applies: PPE 5 μM, flavonoid 2.5 μM, 298 K. The procedure:
The CD spectra of PPE, PPE-quercetin, PPE-hyperoside, PPE-luteolin, and PPE-luteoloside were obtained using an MOS-500 CD spectrometer (Biologic Science Instruments, Seyssinet-Pariset, France). […] Set at a temperature of 298 K. The signal was recorded from 190 to 260 nm using a path length of 1 mm, acquisition duration of 0.5 s, and scanning step of 2 nm. The CD spectra were averaged after performing three scans and correcting for the background value of the phosphate buffer. All results were documented as CD ellipticity in degrees.

Assay [7] has the same target. Briefly: Intrinsic fluorescence quenching of PPE: Stern-Volmer, binding constants, thermodynamics. The following applies: for pKd: Ka binding constant. As for the experimental part: Fluorescence measurements were performed using a model F-7000 fluorescence spectrometer (Hitachi, Tokyo, Japan). Elastase solution (2,000 μL in Tris–HCl buffer solution) was mixed with inhibitor solutions at different concentrations in a 1.0 cm quartz cell at 298, 303, and 310 K. The final concentrations of the four natural flavonoids and elastase were identical to those used to obtain the synchronous fluorescence spectra. The fluorescence emission spectra were recorded within the range of 285–500 nm, following excitation at 280 nm. The excitation and emission slit widths were set as 2.5 nm. The scan speed was 1,200 nm/min and the photomultiplier tube (PMT) voltage was 630 V. Fluorescence intensities were corrected for inner filter and dilution effects before analyzing the binding and quenching data.
To determine the type of fluorescence quenching of the monomer interacting with PPE, the Stern-Volmer equation was used ([20]–[22]):
F0/F=KSV[Q]+1=Kqτ0[Q]+1 (2)
where F0 and F are the fluorescence intensities of PPE before and after the addition of different monomer solutions, respectively, Ksv is the quenching constant, [Q] is the concentration of different drugs, Kq is the quenching rate constant, τ0 is the average fluorescence lifetime of the substance in the absence of a quencher, and τ0 for the general biological macromolecule is 1 × 10^−8 s ([20], [23], [24]).
According to the correction formula, the binding constant (Ka) and number of binding points (n) for the actions of the four monomers and PPE were calculated as follows ([25]–[27]):
lgF0−F/F=nlgKa−nlg1/[Q0]−[P0]F0−F/F0 (3)
where [ Q0 ] and [P0] are the drug and PPE concentrations, respectively.
where K is the binding constant of the interaction, R is the gas constant, ΔH, ΔG, and ΔS are enthalpy, Gibbs energy, and entropy change.

The target in another assay is elastase. More on the design: method as in doi:10.19894/j.issn.1000-0518.210248. The following applies: elastase inhibition, earlier study ref 61; cited from earlier work.

T1 sequence (P00772 27-266): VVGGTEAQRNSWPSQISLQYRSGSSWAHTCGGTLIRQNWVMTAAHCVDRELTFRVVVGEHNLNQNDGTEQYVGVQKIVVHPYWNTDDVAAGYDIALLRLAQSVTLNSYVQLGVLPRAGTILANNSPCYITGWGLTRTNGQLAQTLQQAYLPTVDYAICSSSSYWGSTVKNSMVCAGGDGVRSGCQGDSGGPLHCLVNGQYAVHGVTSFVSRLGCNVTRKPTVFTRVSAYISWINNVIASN

Consider `O=c1cc(-c2ccc(O)c(O)c2)oc2cc(O[C@@H]3O[C@H](CO)[C@@H](O)[C@H](O)[C@H]3O)cc(O)c12` [luteoloside], for which the “red shift of Trp synchronous fluorescence” value in assay [1] came out at 1 nm. Also, the “blue shift of maximum absorption peak of PPE (275 nm)” value in assay [2] is recorded as 8 nm. Also, the “amide I band of PPE after addition (from 1638.45)” value in assay [3] is 1634.55 cm⁻¹. Besides, in assay [4] (298 K), the pIC50 was 4.21. Also, the inhibition at 22.5 µM in assay [4] (read-out: Inhibition rate of PPE) stood at 12.2%. In assay [5], this compound displayed an R0 of 1.99 nm and a binding distance r of 2.71 nm. Besides, the “decrease of α-helical structure” value in assay [6] amounted to 1.99%. For the same compound, the “α-helix (%)” value in assay [6] (PPE alone 7.50) was determined as 5.51%. The “Random coil (%)” value in assay [6] (PPE alone 41.00) turned out to be 43.91%. Moreover, the “β-sheet (%)” value in assay [6] (PPE alone 51.50) stood at 50.58%. Moreover, in assay [7] (298 K), the “KSV Stern-Volmer quenching constant” value is given as 1.79 10^4 L•mol^−1, the “Kq quenching rate constant” value is on record as 1.79 10^12 L•mol^−1•s^−1, the “n number of binding sites” value is 0.95 and the ΔG was -24.41 kJ/mol. This compound also showed a pKd in assay [7] (298 K) of 4.28. Also, in assay [7] (303 K), the “KSV Stern-Volmer quenching constant” value is given as 1.66 10^4 L•mol^−1, the “Kq quenching rate constant” value was 1.66 10^12 L•mol^−1•s^−1, the “n number of binding sites” value was found to be 0.93 and the ΔG is -24.77 kJ/mol. The pKd in assay [7] (303 K) is 4.27. For the same compound, in assay [7] (310 K), the “KSV Stern-Volmer quenching constant” value was 1.57 10^4 L•mol^−1, the “Kq quenching rate constant” value is on record as 1.57 10^12 L•mol^−1•s^−1, the “n number of binding sites” value is reported as 1.07 and the ΔG is -25.28 kJ/mol. This compound gave a pKd in assay [7] (310 K) of 4.26. In assay [7] (van't Hoff, 298, 303, 310 K), the ΔH was -2.924 kJ/mol and the ΔS was 72.107 J/(mol•K).
For `CC(C)(C)C(=O)Oc1ccc(S(=O)(=O)Nc2ccccc2C(=O)NCC(=O)O)cc1` [sivelestat sodium], the pIC50 on elastase is 5.00.
